Reference: patent publication EP3593822A1, “THERAPEUTIC AND DIAGNOSTIC APPLICATIONS OF A NEW METHOD OF MONITORING OF NEUROGLIAL INTERACTION MEMRI)” (Theranexus, priority 2018, dated 2020)
Counter-ions that a name gives are not always drawn.

Target: T1, Cx43 (Mus musculus, UniProt P23242)
T1 construct: from tissue; host or cells: brain of living wild-type C57BL/6 male mice (in vivo)
Assay: Manganese-enhanced MRI (MEMRI) of mouse brain after administration of connexin modulators
Type: in vivo, wild-type C57BL/6 male mice
Conditions: for T1-w signal intensity (% of control): 1 mg/kg i.p. 2.5h before imaging, 24h after MnCl2 50 mg/kg i.p., mean ± SEM; for increase of T1-w signal intensity: n=6, change versus control, 1 mg/kg i.p.
Procedure: The MRI measurements were performed on 42 wild-type C57BL/6 male mice. All mice weighed between 25 and 35 g. Mice were housed 4-5 per cage under standard conditions (12/12 h light-dark cycle, light on at 7 am, 22 ± 1°C ambient temperature, 60% relative humidity). This work was carried out in accordance with the Policies of the French Committee of Ethics. Animal surgery and experimentations conducted in this study were authorized by the French Direction of Veterinary Services and all efforts were made to improve animal welfare and minimize animals suffering.
All animals were injected intraperitoneally with MnCl2 50 mg/kg. Animals received an injection of treatment (or saline) 24h after the MnCl2 administration, and were imaged 2.5h later.
The mice were anesthetized with 0.5-1.0% isoflurane in air throughout the experiments. The respiration rate was monitored and the body temperature was maintained at 36.5 °C using an MR-compatible, feedback-controlled air heating system (model 1025; SA Instruments, NY). A capillary filled with 100 µM MnCl2 was placed on the head, inside the RF coil, and was used as signal intensity reference.
The T1-weighted images were acquired using a 3D rapid acquisition with relaxation enhancement (RARE) sequence: RARE factor 4, repetition time/echo time = 250 ms / 6 ms, 4 averages. For T1 relaxation time measurements, a true fast Imaging with Steady-state free Precession (trueFISP) sequence was used with the following acquisition parameters: repetition time/echo time = 3.66/1.83 ms, flip angle = 10, inversion time = 80 ms, number of inversion times = 60, 2 averages.
The position of the brain image was co-registered to a template using SPM8 software (Welcome Trust Center for Neuroimaging, UK). The template image was co-registered to mouse brain atlas (Paxinos and Franklin's the Mouse Brain in Stereotaxic Coordinates 3rd Edition). T1-weighted signals were normalized using the signal intensity from the reference tube. T1 maps were calculated as described previously elsewhere (74). Eighteen regions of interest (ROIs) were defined using the mouse brain atlas.
The averaged T1-weighted signals and T1 values were calculated using an in house written Matlab program. To compensate for differences in coil sensitivity between left and right channels we calculated the signal intensities in ROIs drawn in the left and right cerebral cortex, including the somatosensory cortex and insular cortex, (ROIcortex_left ROIcortex_right). The averaged T1-weighted signal intensity on the left side (SIleft) was then corrected following the equation: SIleft_corrected = SIleft × SIcortex_right /SIcortex_left [formula]
Statistical analyses were performed using GraphPad Prism version 7.0c. Data were analyzed using Mann-Whitney non-parametric test, paired t test or one sample t test compared to the hypothetical value 1 or 100 as appropriate. In each experiment, a level of p<0.05 was accepted as evidence for a statistically significant effect. * p<0.05; ** p<0.01; *** p<0.001. Response of the MEMRI signal after drugs administration are expressed as means ± SEM of percent of control. The remaining data are expressed as mean ± SEM.
For all, MEMRI signals are expressed as percentage of control. Statistical significances are based on the comparison to the hypothetical value 100%.

[1] = LPB = Lateral parabrachial nucleus
[2] = mPFC = Medial prefrontal cortex

T1 sequence (P23242 2-382 limits assumed): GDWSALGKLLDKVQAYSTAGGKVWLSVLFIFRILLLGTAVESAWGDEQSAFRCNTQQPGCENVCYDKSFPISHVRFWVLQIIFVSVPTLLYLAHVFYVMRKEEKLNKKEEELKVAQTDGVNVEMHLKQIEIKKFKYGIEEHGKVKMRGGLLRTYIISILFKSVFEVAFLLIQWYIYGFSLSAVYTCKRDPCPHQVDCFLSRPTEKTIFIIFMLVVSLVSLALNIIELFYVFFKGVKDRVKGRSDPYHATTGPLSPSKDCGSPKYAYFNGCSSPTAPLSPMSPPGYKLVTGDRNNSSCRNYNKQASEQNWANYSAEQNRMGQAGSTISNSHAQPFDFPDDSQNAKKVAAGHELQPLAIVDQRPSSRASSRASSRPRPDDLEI

Row | SMILES | T1-w signal intensity (% of control) (DRa = Dorsal raphe pallidus) | T1-w signal intensity (% of control) (Hyp = Hypothalamus) | T1-w signal intensity (% of control) (LC = Locus coeruleus) | T1-w signal intensity (% of control) [1] | increase of T1-w signal intensity (olfactory bulb) | increase of T1-w signal intensity (substantia nigra) | T1-w signal intensity (% of control) (AC = Auditory cortex) | T1-w signal intensity (% of control) (Cg = Cingulate cortex) | T1-w signal intensity (% of control) (Cpu = Caudate putamen) | T1-w signal intensity (% of control) (Hip = Hippocampus) | T1-w signal intensity (% of control) (IC = Insular cortex) | T1-w signal intensity (% of control) (MC = Motor cortex) | T1-w signal intensity (% of control) (OB = Olfactory bulb) | T1-w signal intensity (% of control) (OC = Orbital cortex) | T1-w signal intensity (% of control) (PrL = Prelimbic cortex) | T1-w signal intensity (% of control) (SC = Somatosensory cortex) | T1-w signal intensity (% of control) (SN = Substantia nigra) | T1-w signal intensity (% of control) (Sep = Septum) | T1-w signal intensity (% of control) (ThN = Thalamic nuclei) | increase of T1-w signal intensity (hypothalamus) | other results
1 | OC(c1cc(C(F)(F)F)nc2c(C(F)(F)F)cccc12)C1CCCCN1 (centres unmarked) [mefloquine, Mefloquine] | 113 ± 6.84 % of control | 113 ± 8.39 % of control | 111 ± 7.61 % of control | 111 ± 6.96 % of control | +26.5% | +19,2% | – | – | – | – | – | – | – | – | – | – | – | – | – | – | –
2 | Cc1ccc(Cl)c(Nc2ccccc2C(=O)O)c1Cl [meclofenamic acid] | 112 ± 5.31 % of control | 118 ± 5.38 % of control | 104 ± 6.23 % of control | 106 ± 6.15 % of control | ~+47.4% | ~+17.9% | 117 ± 5.68 % of control | 127 ± 4.49 % of control | 130 ± 3.90 % of control | 118 ± 4.32 % of control | 128 ± 5.17 % of control | 122 ± 4.61 % of control | 147 ± 4.91 % of control | 138 ± 4.69 % of control | 136 ± 4.41 % of control | 120 ± 4.90 % of control | 118 ± 5.67 % of control | 136 ± 3.68 % of control | 120 ± 4.87 % of control | approximately +18.5% | T1-w signal intensity (% of control) (LPB = Lateral parabrachial nucleus, listed as MFA): 106 ± 6,15 % of control; T1-w signal intensity (% of control) [2]: 136 ± 4.33 % of control
3 | O=C(NCC1CCCCN1)c1cc(OCC(F)(F)F)ccc1OCC(F)(F)F (centres unmarked) [flecainide, flecainide acetate salt] | 122 ± 6.86 % of control | 121 ± 7.05 % of control | 119 ± 5.69 % of control | 119 ± 6.07 % of control | – | – | 114 ± 4.04 % of control | 123 ± 5.73 % of control | 120 ± 6.01 % of control | 118 ± 4.73 % of control | 118 ± 5.62 % of control | 122 ± 5.09 % of control | 123 ± 9.21 % of control | 123 ± 8.23 % of control | 121 ± 7.09 % of control | 120 ± 4.88 % of control | 117 ± 6.97 % of control | 119 ± 6.95 % of control | 121 ± 5.47 % of control | ~+20.9% | increase of T1-w signal intensity (dorsal raphe pallidus): approximately +21.9%; increase of T1-w signal intensity (lateral parabrachial nucleus): ~+19%; increase of T1-w signal intensity (locus coeruleus): ~+19.2%; T1-w signal intensity (% of control) [2]: 121 ± 6.86 % of control
